From paper PMC4752462 (PLoS ONE, 2016)
Several values for one entry are separate records, joined by “and”; a condition that tells them apart may be missing. Identical values can stand only once.

Assays:
[1] = plasma pharmacokinetics; cited from earlier work
human liver microsomes = assay: Substrate (saturation) kinetics of EVG metabolism in human liver microsomes; format: in vitro ADME
Protocol: (§1) The reaction was carried out using human liver microsomes in 0.1 M potassium phosphate buffer at pH 7.4 as described previously. […] After pre-incubation at 37°C for 10 minutes, 3 mM final concentration of NADPH was added to initiate the metabolic reaction. After 7 minutes incubation at 37°C the reactions were terminated by adding 1:3 volumes of cold acetonitrile. For the time kinetic study, the reaction was terminated at various time points (0.0, 2.5, 5, 10, 15, 20, 30, and 60 minutes). […] The Prior to LCMS/MS analysis the analyte was extracted from the microsomes by a protein precipitation method as described previously. The concentrations of all the drugs were quantified using Ab Sciex Analyst® software. Microsomal kinetic data were analyzed using Michaelis-Menten and exponential decay equations. CYP3A4 inhibition data were evaluated by fitting the values to dose-response inhibition and calculated IC50 values were reported. All graphs were plotted and two-tailed t-tests were performed wherever appropriate using GraphPad Prism 5.01 (GraphPad, San Diego, CA). Significant differences between more than two groups analyzed with one-way ANOVA followed by Dunnett's multiple comparison tests using IBM […] version 20.

[2] = as above; format: in vitro ADME; details: human
Protocol: as §1

CYP3A4 = details: based on the EVG metabolic activity; cited from earlier work
[3] = Sample stability of EVG in the microsomal matrix (bench-top, freeze-thaw, long-term storage); format: physicochemical
Protocol: Accuracy and precision of the method were determined by analyzing QC samples that cover the calibration curve range of the analyte. The low QC concentration was selected to be three times the LLOQ as per the FDA guidelines. Inter-day precision and accuracy were calculated by analyzing extracted calibration standards and three QCs at different concentrations as described in our previous publications. […] Carry-over (memory) effect was determined by assessing the extracted blank immediately after the upper limit of quantification (ULOQ, 1000 ng/ml). Matrix effect (ME), recovery efficiency (RE), and process efficiency (PE) were explored by following a previously proposed methodology. The three sets of samples used for the experiments were as follows: A, pure standard solutions of EVG; B, blank microsomal extraction spiked with pure standard solutions of EVG; C, microsomal samples spiked with pure standard solutions of EVG and extracted at the low, medium, and high QC concentrations. After quantitation of the analyte the parameters were calculated using the following formulae. ME (%) = B/A x 100, RE (%) = C/B x 100, PE (%) = C/A x 100. Furthermore, analyte peak areas were corrected with their respective IS peak areas and reported. Finally, sample stability studies for the EVG in the microsomal matrix was tested using low, medium, and high QCs at the bench-top (25°C) and storage conditions (-80°C). Analyte concentrations in these samples were measured after fresh preparation and at 12, 24, and 48 hours. […] For the long-term storage, samples were analyzed after storing them at the -80°C for three months. All determined concentrations were compared with freshly prepared QCs and reported the variation as a percentage of change from the freshly made QCs. The incurred sample reanalysis was also done by randomly selecting 10% of the total samples analyzed. The obtained data was compared with the first time results of the samples to determine whether the variability is beyond ± 20%.

[4] = three values per group used for statistics

COc1cc2c(cc1Cc1cccc(Cl)c1F)c(=O)c(C(=O)O)cn2[C@H](CO)C(C)C [EVG, Elvitegravir]
plasma half-life [1]: 2 to 3 h | enzyme activity (Fig 4 data) (human liver microsomes; EVG 4): 3.7 μmol/min/mg protein | enzyme activity (Fig 4 data) (human liver microsomes; EVG 8): 7.7 μmol/min/mg protein | enzyme activity (Fig 4 data) (human liver microsomes; EVG 20): 19.5 μmol/min/mg protein | enzyme activity (Fig 4 data) (human liver microsomes; EVG 40): 38.6 μmol/min/mg protein | enzyme activity (Fig 4 data) (human liver microsomes; EVG 60): 55.9 μmol/min/mg protein | enzyme activity (Fig 4 data) (human liver microsomes; EVG 80): 68.9 μmol/min/mg protein | enzyme activity (Fig 4 data) (human liver microsomes; EVG 100): 74.7 μmol/min/mg protein | enzyme activity (Fig 4 data) (human liver microsomes; EVG 120): 71.9 μmol/min/mg protein | enzyme activity (Fig 4 data) (human liver microsomes; EVG 160): 70.9 μmol/min/mg protein | enzyme activity (Fig 4 data) (human liver microsomes; EVG 200): 84.3 μmol/min/mg protein | Vmax (human liver microsomes; EVG alone): 162 ± 16 μmol/min/mg protein | Vmax (human liver microsomes; in the presence of ethanol): 221 ± 18 μmol/min/mg protein | Km (human liver microsomes; [4]): 65.2 µM and 68.7 µM | Vmax (human liver microsomes; [4]): 162.1 and 157.8 and 158.3 | Vmax (human liver microsomes; when COBI is present): 308 ± 45 μmol/min/mg protein | Km at 7 min ([2]; pH 7.4, EVG 4-200 μM, COBI at same ratio, EtOH 20 mM): 68 ± 17 µM | Km at 7 min ([2]; pH 7.4, in the presence of ethanol): 115 ± 18 µM | Km at 7 min ([2]; pH 7.4, three values per group used for statistics): 68.3 µM | Km at 7 min ([2]; pH 7.4, when COBI is present): 189 ± 46 µM | Km (CYP3A4): 21.5 µM | long term storage stability ([3]; -80°C, 3-4 months, data not shown): did not exhibit significant loss in the concentration | change from freshly prepared quality controls ([3]; Freeze thaw (-80°C), cycle 1, High QC 3.50 μM): -3% | change from freshly prepared quality controls ([3]; Freeze thaw (-80°C), cycle 1, Low QC 0.040 μM): -12% | change from freshly prepared quality controls ([3]; Freeze thaw (-80°C), cycle 1, Medium QC 0.75 μM): 5% | change from freshly prepared quality controls ([3]; Freeze thaw (-80°C), cycle 2, High QC 3.50 μM): 3% | change from freshly prepared quality controls ([3]; Freeze thaw (-80°C), cycle 2, Low QC 0.040 μM): -7% | change from freshly prepared quality controls ([3]; Freeze thaw (-80°C), cycle 2, Medium QC 0.75 μM): 3% | change from freshly prepared quality controls ([3]; Freeze thaw (-80°C), cycle 3, High QC 3.50 μM): -15% | change from freshly prepared quality controls ([3]; Freeze thaw (-80°C), cycle 3, Low QC 0.040 μM): -3% | change from freshly prepared quality controls ([3]; Freeze thaw (-80°C), cycle 3, Medium QC 0.75 μM): 5% | change from freshly prepared quality controls ([3]; Room Temp (25°C), 0 hours, High QC 3.50 μM): 0% | change from freshly prepared quality controls ([3]; Room Temp (25°C), 0 hours, Low QC 0.040 μM): 0% | change from freshly prepared quality controls ([3]; Room Temp (25°C), 0 hours, Medium QC 0.75 μM): 0% | change from freshly prepared quality controls ([3]; Room Temp (25°C), 12 hours, High QC 3.50 μM): 0.1% | change from freshly prepared quality controls ([3]; Room Temp (25°C), 12 hours, Low QC 0.040 μM): -14% | change from freshly prepared quality controls ([3]; Room Temp (25°C), 12 hours, Medium QC 0.75 μM): 9% | change from freshly prepared quality controls ([3]; Room Temp (25°C), 24 hours, High QC 3.50 μM): 1.8% | change from freshly prepared quality controls ([3]; Room Temp (25°C), 24 hours, Low QC 0.040 μM): -10% | change from freshly prepared quality controls ([3]; Room Temp (25°C), 24 hours, Medium QC 0.75 μM): 4% | change from freshly prepared quality controls ([3]; Room Temp (25°C), 48 hours, High QC 3.50 μM): -0.4% | change from freshly prepared quality controls ([3]; Room Temp (25°C), 48 hours, Low QC 0.040 μM): -5% | change from freshly prepared quality controls ([3]; Room Temp (25°C), 48 hours, Medium QC 0.75 μM): 7% | stability at room temperature ([3]; microsomal matrix, over 48 hours): considered stable | percentage of variation in the freeze-thaw stability studies ([3]; up to 3-4 freeze-thaw cycles): less than 15%
